The numbers were not newly measured in patent US20120009125A1, “APOE4 AND APOJ BIOMARKER-BASED PREVENTION AND TREATMENT OF DEMENTIA” (priority 2010, published 2012), which cites them from elsewhere.

The test system of one data set is HSPs. To be noted: oral administration.
The subject of a further data set is Hsp70, Hsp90, and Hsp105. The following applies: cell model.

Structures are written as SMILES. Like-named read-outs stand apart in the source and are kept apart here.

For the molecule `CC(=O)CC/C=C(\C)CC/C=C(\C)CC/C=C(\C)CCC=C(C)C` [GGA, (9E;13E)-6,10,14,18-tetramethyl-5,9,13,17-nonadecatetraen-2-one], the solubility in water result is listed as “practically insoluble”. Also, the “expression of HSPs in the central nervous system” value with HSPs is “up-regulated”. Besides, the cell death entry with cell model is listed as “inhibited”. Moreover, the “amyloid oligomer levels and aggregates” value in the data set with amyloid oligomer is “reduces”. In addition, the “amyloid oligomer levels and aggregates” value in the data set with amyloid oligomer (oral administration) is recorded as “reduces”. Besides, in the data set with Hsp70, Hsp90, and Hsp105, the “levels of Hsp70, Hsp90, and Hsp105” value is reported as “increased”.
